Reference: US7915303B2, “Glycopyrronium salts and their therapeutic use” (priority 2005, dated 2011)

Experiments:
Type in all cases: physicochemical
[1] = Glass transition temperature by differential scanning calorimetry (DSC); conditions: for glass transition temperature (Tg) compared with glycopyrronium bromide: comparison with glycopyrronium bromide (1)
[2] = Characterisation of moisture sorption (hygroscopicity) of the amorphous form; conditions: sorption of moisture at low relative humidity
Text: Part of the development of glycopyrronium bromide involves milling of the active substance down to a particle size suitable for use in a dry powder inhalation formulation. […] This material becomes sticky upon sorption of moisture at low relative humidity (RH), and then finally crystallises to a non-hygoscopic hard crystalline substance.
The amorphous form of glycopyrronium iodide (2), for example, can be formed by physical techniques such as spray drying or lyophylisation and its sorption behaviour studied by dynamic vapour sorption (DVS) varying RH over time.

[3] = TG-FTIR thermal stability (weight loss / degradation)

glass transition temperature (Tg) ([1]; amorphous material, determined by DSC) [°C]	hygroscopicity of the amorphous form [2]	Compound	TG-FTIR weight loss / degradation [3]	glass transition temperature (Tg) compared with glycopyrronium bromide [1]	Tg (glass transition) ([1]; lyophilized material, DSC second scan) [°C]
64.9	highly hygroscopic	C[N+]1(C)CCC(OC(=O)C(O)(c2ccccc2)C2CCCC2)C1 (stereo not drawn) [glycopyrronium bromide, reference compound]	–	–	–
–	–	Glycopyrronium Acetate	no significant weight loss below 200° C., degrades above this temperature	lower glass transition temperature (Tg) than glycopyrronium bromide	–
–	–	Glycopyrronium Iodide	no significant weight loss below 200° C., degrades above this temperature	lower glass transition temperature (Tg) than glycopyrronium bromide	55
–	–	Glycopyrronium Sulphate	no significant weight loss below 200° C., degrades above this temperature	lower glass transition temperature (Tg) than glycopyrronium bromide	–
